The values below are quoted from earlier work in patent US20130108552A1, “NEAR-IR INDOCYANINE GREEN DOPED MULTIMODAL SILICA NANOPARTICLES AND METHODS FOR MAKING THE SAME” (UNIVERSITY OF FLORIDA RESEARCH FOUNDATION INC., priority 2010, published 2013).

In data set [1] the test system is nonspecific plasma proteins.
The conditions of data set [2]: in H2O.

On to `CC1(C)C(/C=C/C=C/C=C/C=C2\N(CCCCS(=O)(=O)O)c3ccc4ccccc4c3C2(C)C)=[N+](CCCCS(=O)(=O)[O-])c2ccc3ccccc3c21` [ICG, indocyanine green], for which, in data set [1], the “binding to nonspecific plasma proteins” value was “strongly bind to nonspecific plasma proteins”. In data set [2], the critical micelle concentration result is reported as “about 0.32 mg/mL”.
